The structures appear in SMILES notation.

The assay relates to PD-1/PD-L1 interaction. In words: Cell based PD-1/PD-L1 NFAT reporter assay. More on the design: species or system human. Conditions: Homo sapiens, 6 h, PD-1/NFAT-Reporter-Jurkat cells co-cultured with TCR activator/PD-L1-CHO cells; 6 hour incubation; luciferase; calibrated to Atezolizumab 10 nM; read-out: Absolute EC50. As for the experimental part:
Cell Based PD-1/PD-L1 NFAT Reporter Assay
Compounds of the present patent were tested in a cell based PD-1/PD-L1 NFAT reporter assay.
The cell-based luciferase reporter assay is used for monitoring the PD-1/PD-L1 inhibitor by characterizing the biological activity of PD-1: PD-L1 interactions in cellular context. PD-1/NFAT-Reporter-Jurkat cells stably over-expressing human PD-1 with NFAT reporter are used as effector cells. TCR activator/PD-L1—CHO cells over-expressing PD-L1 and an engineered T cell receptor (TCR) activator are used as target cells. When these two cells are co-cultivated, TCR complexes on effector cells are activated by TCR activator on target cells, resulting in expression of the NFAT luciferase reporter. However, PD1 and PD-L1 (or PD-L2) ligation prevents TCR activation and suppresses the NFAT-responsive luciferase activity. This inhibition can be specifically reversed by anti-PD1 or anti-PD-L1 inhibitors. PD1/PD-L1 inhibitors block PD1:PD-L1 interaction and promote TCR activation, resulting in reactivation of the NFAT responsive luciferase reporter.
PD-1/NFAT—Reporter—Jurkat cell (Cat: 60535) and TCR activator/PD-L1—CHO cell (Cat: 60536) were purchased from BPS Bioscience. Anti-human PD-L1 antibody (Atezolizumab, Cat: A2004) was purchased from Selleck; luciferase reporter gene expression detection kit (ONE-Glo™ Luciferase Assay System, Cat: E6120) was purchased from Promega; multifunction plate reader (SpectraMax i3x) was purchased from Molecular Devices.
PD-1/NFAT—Reporter—Jurkat cells and TCR activator/PD-L1—CHO cells were cultured in recommended media respectively.
Harvest TCR activator/PD-L1-CHO cells from culture and seed cells at a density of 35,000 cells per well into 96-well microplate in 100 µl of growth medium. Incubate cells at 37° C. in a CO2 incubator overnight. Next day, discard the culture media, add diluted compound in assay medium for 30 min. Anti-PD-L1 antibody (Atezolizumab, final concentration 10 nM) and 0.1% DMSO were the positive and negative control, respectively. Harvest the PD-1/NFAT-reporter-Jurkat cells by centrifugation and add to the wells. After 6 hour incubation, perform luciferase assay using the ONE-Glo™ Luciferase Assay System, following the manufacturer's assay protocol.
Anti-PD-L1 antibody (Atezolizumnab, 10 nM) was used as positive control to calibrate the inhibition rate using the following equation: % inhibition=(Sample luminescence/Average vehicle group luminescence−1)/(Average PD-L1 group luminescence/Average vehicle group luminescence−1)×100%.
In the case of `O=C(O)[C@H](CO)NCc1cc(Cl)c(OCc2cccc(-c3cccc4c3cnn4CCCCN3CC[C@@H](O)C3)c2Br)cc1OCC1CCOCC1` [Compound 45], the EC50 is 2720 nM.
On to `CN1CCC(COc2cc(OCc3cccc(-c4cccc5c4cnn5CCCCN4CC[C@@H](O)C4)c3Br)c(Cl)cc2CN[C@@H](CO)C(=O)O)CC1` [Compound 46], for which the EC50 came out at 846 nM.
For `O=C1CC[C@@H](COc2cc(OCc3cccc(-c4cccc5c4cnn5CCCCN4CC[C@@H](O)C4)c3Br)c(Cl)cc2CN[C@@H](CO)C(=O)O)N1` [Compound 47], the concentration for a half-maximal effect (EC50) was found to be 261 nM.
Take `O=C1CC(COc2cc(OCc3cccc(-c4cccc5c4cnn5CCCCN4CC[C@@H](O)C4)c3Br)c(Cl)cc2CN[C@@H](CO)C(=O)O)CN1` (stereo partly shown) [Compound 48]: the EC50 turned out to be 997 nM.
For `O=C(O)[C@H](CO)NCc1cc(Cl)c(OCc2cccc(-c3cccc4c3cnn4CCCCN3CC[C@@H](O)C3)c2Br)cc1OCC(=O)N1CC[C@@H](O)C1` [Compound 49, (4-((2-bromo-3-(1-(4-((R)-3-hydroxypyrrolidin-1-yl)butyl)-1H-indazol-4-yl)benzyl)oxy)-5-chloro-2-(2-((R)-3-hydroxypyrrolidin-1-yl)-2-oxoethoxy)benzyl)-L-serine] the value was greater than 10000 nM; for `CCNC(=O)COc1cc(OCc2cccc(-c3cccc4c3cnn4CCCCN3CC[C@@H](O)C3)c2Br)c(Cl)cc1CN[C@@H](CO)C(=O)O` [Compound 50], 2820 nM.
The result for `NC(=O)CNC(=O)COc1cc(OCc2cccc(-c3cccc4c3cnn4CCCCN3CC[C@@H](O)C3)c2Br)c(Cl)cc1CN[C@@H](CO)C(=O)O` [Compound 51] reads 3080 nM; that for `CN(C)CCNC(=O)COc1cc(OCc2cccc(-c3cccc4c3cnn4CCCCN3CC[C@@H](O)C3)c2Br)c(Cl)cc1CN[C@@H](CO)C(=O)O` [Compound 52], greater than 10000 nM.
Take `COCCNC(=O)COc1cc(OCc2cccc(-c3cccc4c3cnn4CCCCN3CC[C@@H](O)C3)c2Br)c(Cl)cc1CN[C@@H](CO)C(=O)O` [Compound 53]: the EC50 was greater than 10000 nM.
The result for `Cc1c(OCCCN2CC[C@@H](O)C2)cccc1-c1cccc2c1cnn2Cc1cc(OCc2cncc(C#N)c2)c(CN[C@@H](CO)C(=O)O)cc1Cl` [Compound 54, (5-chloro-2-((5-cyanopyridin-3-yl)methoxy)-4-((4-(3-(3-((R)-3-hydroxypyrrolidin-1-yl)propoxy)-2-methylphenyl)-1H-indazol-1-yl)methyl)benzyl)-L-serine] reads 339 nM.
As for `N#Cc1cncc(COc2cc(Cn3ncc4c(-c5cccc(OCCCN6CC[C@@H](O)C6)c5Br)cccc43)c(Cl)cc2CN[C@@H](CO)C(=O)O)c1` [Compound 55, (4-((4-(2-bromo-3-(3-((R)-3-hydroxypyrrolidin-1-yl)propoxy)phenyl)-1H-indazol-1-yl)methyl)-5-chloro-2-((5-cyanopyridin-3-yl)methoxy)benzyl)-L-serine], the EC50 is 1150 nM.
For the compound `COc1cc(OCc2cccc(-c3cccc4c3cnn4Cc3cc(OCc4cncc(C#N)c4)c(CN[C@@H](CO)C(=O)O)cc3Cl)c2C)c(Cl)cc1CN[C@@H](CO)C(=O)O` [Compound 56, (4-((3-(1-(4-((((S)-1-carboxy-2-hydroxyethyl)amino)methyl)-2-chloro-5-((5-cyanopyridin-3-yl)methoxy)benzyl)-1H-indazol-4-yl)-2-methylbenzyl)oxy)-5-chloro-2-methoxybenzyl)-L-serine], the EC50 was 163 nM.
For `Cc1c(COc2cc(OCc3cncc(C#N)c3)c(CN[C@@H](CO)C(=O)O)cc2Cl)cccc1-c1cccc2c1cnn2Cc1cc(OCc2cncc(C#N)c2)c(CN[C@@H](CO)C(=O)O)cc1Cl` [Compound 57, (4-((3-(1-(4-((((S)-1-carboxy-2-hydroxyethyl)amino)methyl)-2-chloro-5-((5-cyanopyridin-3-yl)methoxy)benzyl)-1H-indazol-4-yl)-2-methylbenzyl)oxy)-5-chloro-2-((5-cyanopyridin-3-yl)methoxy)benzyl)-L-serine], the EC50 came out at 53 nM.
With `N#Cc1cncc(COc2cc(OCc3cccc(-c4cccc5c4cnn5Cc4ccc(CN[C@@H](CO)C(=O)O)cc4)c3Br)c(Cl)cc2CN[C@@H](CO)C(=O)O)c1` [Compound 58, (4-((4-(2-bromo-3-((4-((((S)-1-carboxy-2-hydroxyethyl)amino)methyl)-2-chloro-5-((5-cyanopyridin-3-yl)methoxy)phenoxy)methyl)phenyl)-1H-indazol-1-yl)methyl)benzyl)-L-serine], the EC50 worked out at 1710 nM.
As to `N#Cc1cncc(COc2cc(OCc3cccc(-c4cccc5c4cnn5Cc4ccc(CN[C@@H](CO)C(=O)O)cc4Cl)c3Br)c(Cl)cc2CN[C@@H](CO)C(=O)O)c1` [Compound 59, (4-((4-(2-bromo-3-((4-((((S)-1-carboxy-2-hydroxyethyl)amino)methyl)-2-chloro-5-((5-cyanopyridin-3-yl)methoxy)phenoxy)methyl)phenyl)-1H-indazol-1-yl)methyl)-3-chlorobenzyl)-L-serine], the EC50 worked out at 220 nM.
Consider `CC(CO)(CO)NCc1cc(Cl)c(Cn2ncc3c(-c4cccc5c4cnn5CCCN4CC[C@@H](O)C4)cccc32)cc1OCc1cncc(C#N)c1` [Compound 60, (R)-5-((4-chloro-2-(((1,3-dihydroxy-2-methylpropan-2-yl)amino)methyl)-5-((1′-(3-(3-hydroxypyrrolidin-1-yl)propyl)-1H,1′H-[4,4′-biindazol]-1-yl)methyl)phenoxy)methyl)nicotinonitrile], for which the 50% effective concentration (EC50) turned out to be 1850 nM.
The result for `N#Cc1cncc(COc2cc(Cn3ncc4c(-c5cccc6c5cnn6Cc5cc(OCc6cncc(C#N)c6)c(CN[C@@H](CO)C(=O)O)cc5Cl)cccc43)c(Cl)cc2CN[C@@H](CO)C(=O)O)c1` [Compound 61, (2S,2'S)-2,2′-((((1H,1′H-[4,4′-biindazole]-1,1′-diylbis(methylene))bis(5-chloro-2-((5-cyanopyridin-3-yl)methoxy)-4,1-phenylene))bis(methylene))bis(azanediyl))bis(3-hydroxypropanoic acid)] reads 124 nM; that for `Cc1c(COc2cc(OCc3cncc(C#N)c3)c(CN[C@@H](CO)C(=O)OC(C)C)cc2Cl)cccc1-c1cccc2c1cnn2Cc1cc(OCc2cncc(C#N)c2)c(CN[C@@H](CO)C(=O)O)cc1Cl` [Compound 64, (5-chloro-4-((4-(3-((2-chloro-5-((5-cyanopyridin-3-yl)methoxy)-4-((((S)-3-hydroxy-1-isopropoxy-1-oxopropan-2-yl)amino)methyl)phenoxy)methyl)-2-methylphenyl)-1H-indazol-1-yl)methyl)-2-((5-cyanopyridin-3-yl)methoxy)benzyl)-L-serine], 550 nM.
For `Cc1c(COc2cc(OCc3cncc(C#N)c3)c(CN[C@@H](CO)C(=O)O)cc2Cl)cccc1-c1cccc2c1cnn2Cc1cc(OCc2cncc(C#N)c2)c(CN[C@@H](CO)C(=O)OC(C)C)cc1Cl` [Compound 65, (5-chloro-4-((3-(1-(2-chloro-5-((5-cyanopyridin-3-yl)methoxy)-4-((((S)-3-hydroxy-1-isopropoxy-1-oxopropan-2-yl)amino)methyl)benzyl)-1H-indazol-4-yl)-2-methylbenzyl)oxy)-2-((5-cyanopyridin-3-yl)methoxy)benzyl)-L-serine] the value was 418 nM.

Values taken from US12091398B2, “PD-L1 antagonist compound” (ADLAI NORTYE BIOPHARMA CO., LTD., priority 2019, dated 2024).
